Publication PMC3954439 (Molecular cancer therapeutics, 2014)

Molecular target: T1, ABCC10 (MRP7) (Homo sapiens, UniProt Q5T3U5)
T1 sequence (Q5T3U5 1-1492): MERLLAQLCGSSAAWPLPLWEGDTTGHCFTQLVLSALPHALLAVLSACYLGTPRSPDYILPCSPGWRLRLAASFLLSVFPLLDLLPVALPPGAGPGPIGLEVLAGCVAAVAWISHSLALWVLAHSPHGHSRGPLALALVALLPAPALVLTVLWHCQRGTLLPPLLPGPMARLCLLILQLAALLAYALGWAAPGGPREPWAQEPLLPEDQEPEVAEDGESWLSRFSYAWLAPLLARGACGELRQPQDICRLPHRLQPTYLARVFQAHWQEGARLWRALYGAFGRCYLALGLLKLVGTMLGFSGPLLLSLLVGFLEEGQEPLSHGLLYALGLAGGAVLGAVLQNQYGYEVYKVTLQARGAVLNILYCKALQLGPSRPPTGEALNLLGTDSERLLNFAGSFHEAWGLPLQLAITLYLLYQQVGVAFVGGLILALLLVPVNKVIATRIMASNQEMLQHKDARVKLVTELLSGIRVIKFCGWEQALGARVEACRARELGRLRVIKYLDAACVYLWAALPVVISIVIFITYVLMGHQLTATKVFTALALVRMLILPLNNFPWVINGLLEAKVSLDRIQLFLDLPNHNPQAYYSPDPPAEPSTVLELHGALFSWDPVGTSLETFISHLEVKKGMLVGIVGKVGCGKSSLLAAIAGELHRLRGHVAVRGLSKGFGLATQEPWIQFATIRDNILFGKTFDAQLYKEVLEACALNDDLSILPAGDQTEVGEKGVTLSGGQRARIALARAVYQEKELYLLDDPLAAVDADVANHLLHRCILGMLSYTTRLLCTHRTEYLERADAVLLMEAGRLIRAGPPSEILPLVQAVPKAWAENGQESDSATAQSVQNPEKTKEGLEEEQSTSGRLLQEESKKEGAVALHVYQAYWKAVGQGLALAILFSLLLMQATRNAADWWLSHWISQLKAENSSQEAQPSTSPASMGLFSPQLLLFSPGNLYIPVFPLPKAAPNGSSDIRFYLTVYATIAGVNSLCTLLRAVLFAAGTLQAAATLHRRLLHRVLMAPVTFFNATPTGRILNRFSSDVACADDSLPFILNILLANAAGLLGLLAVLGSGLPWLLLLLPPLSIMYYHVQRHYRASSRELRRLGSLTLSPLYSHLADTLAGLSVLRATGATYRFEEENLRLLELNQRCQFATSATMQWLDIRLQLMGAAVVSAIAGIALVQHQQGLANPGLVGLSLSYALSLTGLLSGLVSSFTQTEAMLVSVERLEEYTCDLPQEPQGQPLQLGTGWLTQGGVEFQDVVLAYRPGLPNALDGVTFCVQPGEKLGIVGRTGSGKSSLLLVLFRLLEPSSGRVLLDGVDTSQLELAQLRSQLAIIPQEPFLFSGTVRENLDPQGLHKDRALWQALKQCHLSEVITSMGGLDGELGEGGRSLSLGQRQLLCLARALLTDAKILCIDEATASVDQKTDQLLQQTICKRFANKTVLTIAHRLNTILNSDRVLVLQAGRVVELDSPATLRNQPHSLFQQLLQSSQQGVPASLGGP
Assay: [3H]-paclitaxel efflux, HEK293/ABCC10 vs HEK293/pcDNA3.[…] cells
Type: cell-based
Details: labelled compound; 0.01 uM; 37 C; whole cells

Question: Which “[3H]-paclitaxel efflux, HEK293/ABCC10 vs HEK293/pcDNA3.1 cells” value does the source give for `CC(=O)O[C@H]1C(=O)[C@@]2(C)[C@H]([C@H](OC(=O)c3ccccc3)[C@]3(O)C[C@H](OC(=O)[C@H](O)[C@@H](NC(=O)c4ccccc4)c4ccccc4)C(C)=C1C3(C)C)[C@]1(OC(C)=O)CO[C@@H]1C[C@@H]2O` [[3H]-paclitaxel] here?
Answer: Its value is “due to active efflux of the [^3H]-paclitaxel via ABCC10”.
